Measurements published in PubChem BioAssay AID1963436 (Molecular Pharmacology Branch, DTP, NCI, 2024).

Tested on: OVCAR-5 complex spheroid (HUVEC/MSC), viability % T/C
Assay: Anticancer human tumor OVCAR-5 cell line growth inhibition [Asc];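 further: spheroids exposed to agents for 7 days before readout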;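 on viability, T/C: 100% = DMSO vehicle-treated wells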
Conditions: for IC50: curve of first compound; for viability, T/C: stronger effect = lower value
Procedure: Multicellular complex tumor spheroid response to apoptosis pathway targeting inhibitors Alrizomadlin, Pelcitoclax, and Dasminapant in combination with a variety of drugs and investigational agents in selected tumor cell lines
The MDM2 inhibitor alrizomadlin, the Bcl-2/Bcl-xL inhibitor pelcitoclax, and the IAPs inhibitor dasminapant were evaluated both individually and in combination with standard of care and investigational anticancer small molecules within a complex spheroid model of solid tumors. . Complex spheroids include a stromal component modeled by human endothelial cells (HUVEC) and fibroblasts modeled by human mesenchymal stem cells (MSCs). The concentration ranges selected for each drug and investigational agent were based upon clinically achievable concentrations if the clinical Cmax of the agent was known.
Compounds. The drugs and investigational agents: alrizomadlin (APG-115; NSC831270), pelcitoclax (APG-1252; NSC835773), dasminapant (APG-1387;NSC834197), TAK-243 (NSC785004), copanlisib (NSC809693), olaparib (NSC753686), talazoparib (NSC767125), cobimetinib (NSC 768068), eltanexor (KPT-8602, NSC 794443), abemaciclib (NSC 768073), sotorasib (NSC818433), adagrasib (NSC 831453), MRTX-1133 (NSC 836407), Iadademestat (ORY1001, NSC 806812), and RMC-4630 (NSC839698), were obtained from the NCI Developmental Therapeutics Program Chemical Repository. The FDA-approved anticancer drug set is available from the Developmental Therapeutics Program at https://dtp.cancer.gov/organization/dscb/obtaining/available plates.htm. […] The stock solutions were prepared in dimethyl sulfoxide (DMSO, Sigma-Aldrich, St. Louis, MO, cat. D2650) at 800-fold the tested concentration and stored at -70 degrees C prior to their use. All drugs and investigational agents were tested over a range starting from a high concentration at or near the clinical Cmax and decreasing in half-log increments. If the clinical Cmax for an agent had not been determined, the highest concentration tested was 10 microM.
The patient-derived cancer (PDC) cell lines include five colon adenocarcinomas: 186277-243-T-J2-PDC, 616215-338-R-J1-PDC, 439559-082-T-J2-PDC, 463943-066-T-J2-PDC, and 519858-162-T-J1-PDC; three pancreatic carcinomas: 323965-272-R-J2-PDC, 521955-158-R6-J3-PDC, and 521955-158-R2-J5-PDC; two uterine sarcomas: 327498-152-R-J2-PDC and 993429-296-R-J1-PDC; two rhabdomyosarcomas: 755483-174-R-J1-PDC and 772245-204-R-J1-PDC; two soft tissue sarcomas: 126254-015-R-J1-PDC and 494315-158-R-J1-PDC; two malignant fibrous histiocytomas: 317291-083-R-J1-PDC and 596521-263-R-J1-PDC; two breast carcinomas: 171881-019-R-J1-PDC and 885512-296-R-J2-PDC; and one ovarian carcinoma: 6556581-035-R-J-PDC were obtained from the NCI PDMR, (https://pdmr.cancer.gov). The established cell lines HSSY-2 synovial sarcoma (RRID:CVCL 8719), SYO-1 synovial sarcoma (RRID:CVCL_7146), MPNST malignant peripheral neural sheath tumor were obtained from the Sloan Kettering Institute. The following established cell lines were purchased from the American Type Culture Collection (ATCC, Manassas, VA), Sor the received from the NCI repository:, PANC-1 pancreatic carcinoma (CRL-1469, RRID:CVCL_0480), OVCAR-5 ovarian carcinoma (RRID:CVCL_1628), OVCAR-8 ovarian carcinoma (RRID:CVCL_1629), , MCF-7 breast carcinoma (CRL-12584, RRID:CVCL_0031), MDA-MB-231 breast carcinoma (CRL-12532, RRID:CVCL_0062), NCI-H1876 small cell lung carcinoma (CRL-5902, RRID:CVCL_1503), NCI-H510A small cell lung carcinoma (HTB-184, RRID:CVCL_1565), NCI-H1417 (CRL-5869, RRID:CVCL_1469), and NCI-H196 small cell lung carcinoma (CRL-5823, RRID:CVCL_1509). Dr. Peter Houghton (Greehey Children's Cancer Research Institute, University of Texas Health Science Center, San Antonio, TX) provided Rh-18 rhabdomyosarcoma (RRID:CVCL_1659). Pooled donor human umbilical vein endothelial cells (HUVEC, Lonza, cat. CC-2519) and human mesenchymal stem cells (hMSC, Lonza, cat. PT-2501) were purchased from Lonza (Walkersville, MD).
Cell Culture. […]

[1] = second compound 0.03 µM, first compound 0.00316 µM
[2] = second compound 0.03 µM, first compound 0.01 µM
[3] = second compound 0.03 µM, first compound 0.0316 µM
[4] = second compound 0.03 µM, first compound 0.1 µM
[5] = second compound 0.0949 µM, first compound 0.00316 µM
[6] = second compound 0.0949 µM, first compound 0.01 µM
[7] = second compound 0.0949 µM, first compound 0.0316 µM
[8] = second compound 0.0949 µM, first compound 0.1 µM
[9] = second compound 0.3 µM, first compound 0.00316 µM
[10] = second compound 0.3 µM, first compound 0.01 µM
[11] = second compound 0.3 µM, first compound 0.0316 µM
[12] = second compound 0.3 µM, first compound 0.1 µM
[13] = second compound 0.949 µM, first compound 0.00316 µM
[14] = second compound 0.949 µM, first compound 0.01 µM
[15] = second compound 0.949 µM, first compound 0.0316 µM
[16] = second compound 0.949 µM, first compound 0.1 µM
[17] = second compound 3 µM, first compound 0.00316 µM
[18] = second compound 3 µM, first compound 0.01 µM
[19] = second compound 3 µM, first compound 0.0316 µM
[20] = second compound 3 µM, first compound 0.1 µM

SMILES: CCN1CCN(Cc2ccc(Nc3ncc(F)c(-c4cc(F)c5nc(C)n(C(C)C)c5c4)n3)nc2)CC1 + CCN1C(C(=O)NC23CCC(C(=O)O)(CC2)CC3)C(c2cccc(Cl)c2F)C2(C(=O)Nc3cc(Cl)ccc32)C12CCCCC2
- IC50 (second compound 0.03 µM): > 1000 nM
- IC50 (second compound 0.0949 µM): > 1000 nM
- IC50 (second compound 0.3 µM): > 1000 nM
- IC50 (second compound 0.949 µM): > 1000 nM
- IC50 (second compound 3 µM): > 1000 nM
- viability, T/C [1]: 85.1%
- viability, T/C [2]: 93.5%
- viability, T/C [3]: 68.1%
- viability, T/C [4]: 64.7%
- viability, T/C (second compound 0.03 µM, first compound 0.316 µM): 65.4%
- viability, T/C (second compound 0.03 µM, first compound 1 µM): 56.5%
- viability, T/C [5]: 98.2%
- viability, T/C [6]: 91.8%
- viability, T/C [7]: 67.2%
- viability, T/C [8]: 66.1%
- viability, T/C (second compound 0.0949 µM, first compound 0.316 µM): 61%
- viability, T/C (second compound 0.0949 µM, first compound 1 µM): 62.8%
- viability, T/C [9]: 102%
- viability, T/C [10]: 86.5%
- viability, T/C [11]: 77.7%
- viability, T/C [12]: 59.9%
- viability, T/C (second compound 0.3 µM, first compound 0.316 µM): 68.3%
- viability, T/C (second compound 0.3 µM, first compound 1 µM): 62.4%
- viability, T/C [13]: 85.9%
- viability, T/C [14]: 92.3%
- viability, T/C [15]: 74.2%
- viability, T/C [16]: 65.1%
- viability, T/C (second compound 0.949 µM, first compound 0.316 µM): 69.1%
- viability, T/C (second compound 0.949 µM, first compound 1 µM): 62.4%
- viability, T/C [17]: 106%
- viability, T/C [18]: 99.1%
- viability, T/C [19]: 85.4%
- viability, T/C [20]: 65.6%
- viability, T/C (second compound 3 µM, first compound 0.316 µM): 65.5%
- viability, T/C (second compound 3 µM, first compound 1 µM): 64.2%

SMILES: NC(=O)C(=Cn1cnc(-c2cc(C(F)(F)F)cc(C(F)(F)F)c2)n1)c1cncnc1 + CCN1C(C(=O)NC23CCC(C(=O)O)(CC2)CC3)C(c2cccc(Cl)c2F)C2(C(=O)Nc3cc(Cl)ccc32)C12CCCCC2
- IC50 (second compound 0.03 µM): 299 nM
- IC50 (second compound 0.0949 µM): > 300 nM
- IC50 (second compound 0.3 µM): 256 nM
- IC50 (second compound 0.949 µM): > 300 nM
- IC50 (second compound 3 µM): 216 nM
- viability, T/C (second compound 0.03 µM, first compound 0.000949 µM): 95.8%
- viability, T/C (second compound 0.03 µM, first compound 0.003 µM): 85.5%
- viability, T/C (second compound 0.03 µM, first compound 0.00949 µM): 82.1%
- viability, T/C (second compound 0.03 µM, first compound 0.03 µM): 76.5%
- viability, T/C (second compound 0.03 µM, first compound 0.0949 µM): 71.2%
- viability, T/C (second compound 0.03 µM, first compound 0.3 µM): 48.1%
- viability, T/C (second compound 0.0949 µM, first compound 0.000949 µM): 93.9%
- viability, T/C (second compound 0.0949 µM, first compound 0.003 µM): 99.9%
- viability, T/C (second compound 0.0949 µM, first compound 0.00949 µM): 81.9%
- viability, T/C (second compound 0.0949 µM, first compound 0.03 µM): 67.3%
- viability, T/C (second compound 0.0949 µM, first compound 0.0949 µM): 67.8%
- viability, T/C (second compound 0.0949 µM, first compound 0.3 µM): 48.2%
- viability, T/C (second compound 0.3 µM, first compound 0.000949 µM): 79.1%
- viability, T/C (second compound 0.3 µM, first compound 0.003 µM): 95.8%
- viability, T/C (second compound 0.3 µM, first compound 0.00949 µM): 86.9%
- viability, T/C (second compound 0.3 µM, first compound 0.03 µM): 72%
- viability, T/C (second compound 0.3 µM, first compound 0.0949 µM): 70.2%
- viability, T/C (second compound 0.3 µM, first compound 0.3 µM): 46.7%
- viability, T/C (second compound 0.949 µM, first compound 0.000949 µM): 103%
- viability, T/C (second compound 0.949 µM, first compound 0.003 µM): 108%
- viability, T/C (second compound 0.949 µM, first compound 0.00949 µM): 87.4%
- viability, T/C (second compound 0.949 µM, first compound 0.03 µM): 81.4%
- viability, T/C (second compound 0.949 µM, first compound 0.0949 µM): 66.2%
- viability, T/C (second compound 0.949 µM, first compound 0.3 µM): 53.3%
- viability, T/C (second compound 3 µM, first compound 0.000949 µM): 98.5%
- viability, T/C (second compound 3 µM, first compound 0.003 µM): 96.7%
- viability, T/C (second compound 3 µM, first compound 0.00949 µM): 80%
- viability, T/C (second compound 3 µM, first compound 0.03 µM): 69.7%
- viability, T/C (second compound 3 µM, first compound 0.0949 µM): 61.8%
- viability, T/C (second compound 3 µM, first compound 0.3 µM): 45.4%

SMILES: NC1CCC(NC2CC2c2ccccc2)CC1 (stereo not given) + CCN1C(C(=O)NC23CCC(C(=O)O)(CC2)CC3)C(c2cccc(Cl)c2F)C2(C(=O)Nc3cc(Cl)ccc32)C12CCCCC2
- IC50 (second compound 0.03 µM): > 100 nM
- IC50 (second compound 0.0949 µM): > 100 nM
- IC50 (second compound 0.3 µM): > 100 nM
- IC50 (second compound 0.949 µM): > 100 nM
- IC50 (second compound 3 µM): > 100 nM
- viability, T/C (second compound 0.03 µM, first compound 0.000316 µM): 98.4%
- viability, T/C (second compound 0.03 µM, first compound 0.001 µM): 90.7%
- viability, T/C [1]: 88.6%
- viability, T/C [2]: 85.9%
- viability, T/C [3]: 97.3%
- viability, T/C [4]: 89.8%
- viability, T/C (second compound 0.0949 µM, first compound 0.000316 µM): 89.9%
- viability, T/C (second compound 0.0949 µM, first compound 0.001 µM): 100%
- viability, T/C [5]: 88.5%
- viability, T/C [6]: 82.5%
- viability, T/C [7]: 93%
- viability, T/C [8]: 85.7%
- viability, T/C (second compound 0.3 µM, first compound 0.000316 µM): 89.9%
- viability, T/C (second compound 0.3 µM, first compound 0.001 µM): 90.9%
- viability, T/C [9]: 93.2%
- viability, T/C [10]: 77.5%
- viability, T/C [11]: 94.3%
- viability, T/C [12]: 97.3%
- viability, T/C (second compound 0.949 µM, first compound 0.000316 µM): 89.4%
- viability, T/C (second compound 0.949 µM, first compound 0.001 µM): 97.9%
- viability, T/C [13]: 97.6%
- viability, T/C [14]: 88.9%
- viability, T/C [15]: 85.5%
- viability, T/C [16]: 95.2%
- viability, T/C (second compound 3 µM, first compound 0.000316 µM): 102%
- viability, T/C (second compound 3 µM, first compound 0.001 µM): 99.6%
- viability, T/C [17]: 105%
- viability, T/C [18]: 83.7%
- viability, T/C [19]: 89.5%
- viability, T/C [20]: 91.5%
